Paper PMC9234961 (Journal of Medicinal Chemistry, 2022)
Where “and” joins values, the source holds several entries; their conditions need not be identical. Equal entries are not always repeated. Where two headings read alike, the source gives them in different places.

Legend:
kinases (468) [1] = molecular target: kinases (468) (Homo sapiens, UniProt Q13164); settings: ERK5 (MAPK7); 1000 nM
kinases (468) [2] = molecular target: kinases (468) (Homo sapiens, UniProt Q9H2X6); settings: HIPK2; 1000 nM
kinases (468) [3] = molecular target: kinases (468) (Homo sapiens, UniProt Q05655); settings: PRKCD; 1000 nM
kinases (468) [4] = molecular target: kinases (468) (Homo sapiens, UniProt P35916); settings: FLT4; 1000 nM
kinases (468) [5] = molecular target: kinases (468) (Homo sapiens, UniProt Q9UEW8); settings: kinase STK39 (Entrez STK39); compound concentration 1000 nM
kinases (468) [6] = molecular target: kinases (468) (Homo sapiens, UniProt P24941); settings: CDK2; 1000 nM
kinases (468) [7] = molecular target: kinases (468) (Homo sapiens, UniProt Q8NFD2); settings: ANKK1; 1000 nM
kinases (468) [8] = molecular target: kinases (468) (Homo sapiens, UniProt P10721); settings: 1000 nM
kinases (468) [9] = molecular target: kinases (468) (Homo sapiens, UniProt P36888); settings: 1000 nM
kinases (468) [10] = molecular target: kinases (468) (Homo sapiens, UniProt P29376); settings: LTK; 1000 nM
kinases (468) [11] = molecular target: kinases (468) (Homo sapiens, UniProt Q15759); settings: p38-beta (MAPK11); 1000 nM
kinases (468) [12] = test system: kinases (468)
kinases (468) [13] = molecular target: kinases (468) (Homo sapiens, UniProt P29317); settings: EPHA2; 1000 nM
kinases (468) [14] = molecular target: kinases (468) (Homo sapiens, UniProt P04049); settings: RAF1; 1000 nM
kinases (468) [15] = molecular target: kinases (468) (Homo sapiens, UniProt Q15208); settings: NDR1 (STK38); 1000 nM
kinases (468) [16] = molecular target: kinases (468) (Homo sapiens, UniProt Q6PHR2); settings: kinase ULK3 (Entrez ULK3); compound concentration 1000 nM
kinases (468) [17] = molecular target: kinases (468) (Homo sapiens, UniProt Q8TF76); settings: HASPIN (GSG2); 1000 nM
kinases (468) [18] = molecular target: kinases (468) (Homo sapiens, UniProt Q9H093); settings: kinase SNARK (Entrez NUAK2); compound concentration 1000 nM
kinases (468) [19] = molecular target: kinases (468) (Homo sapiens, UniProt Q05397); settings: FAK (PTK2); 1000 nM
kinases (468) [20] = molecular target: kinases (468) (Homo sapiens, UniProt Q02779); settings: MLK2 (MAP3K10); 1000 nM
kinases (468) [21] = molecular target: kinases (468) (Homo sapiens, UniProt Q9UPZ9); settings: ICK; 1000 nM
kinases (468) [22] = molecular target: kinases (468) (Homo sapiens, UniProt P49761); settings: CLK3; 1000 nM
kinases (468) [23] = molecular target: kinases (468) (Homo sapiens, UniProt O00750); settings: PIK3C2B; 1000 nM
kinases (468) [24] = molecular target: kinases (468) (Homo sapiens, UniProt Q9H2G2); settings: kinase SLK (Entrez SLK); compound concentration 1000 nM
kinases (468) [25] = molecular target: kinases (468) (Homo sapiens, UniProt P27037); settings: ACVR2A; 1000 nM
kinases (468) [26] = molecular target: kinases (468) (Homo sapiens, UniProt P49674); settings: CSNK1E; 1000 nM
kinases (468) [27] = molecular target: kinases (468) (Homo sapiens, UniProt Q13043); settings: MST1 (STK4); 1000 nM
kinases (468) [28] = molecular target: kinases (468) (Homo sapiens, UniProt P52564); settings: MEK6 (MAP2K6); 1000 nM
kinases (468) [29] = molecular target: kinases (468) (Homo sapiens, UniProt Q13153); settings: PAK1; 1000 nM
kinases (468) [30] = molecular target: kinases (468) (Homo sapiens, UniProt P07948); settings: LYN; 1000 nM
kinases (468) [31] = molecular target: kinases (468) (Homo sapiens, UniProt Q9NYL2); settings: kinase ZAK (Entrez ZAK); compound concentration 1000 nM
kinases (468) [32] = molecular target: kinases (468) (Homo sapiens, UniProt P42336, E545K); settings: PIK3CA(E545K); 1000 nM
kinases (468) [33] = molecular target: kinases (468) (Homo sapiens, UniProt P41240); settings: CSK; 1000 nM
kinases (468) [34] = molecular target: kinases (468) (Homo sapiens, UniProt Q96D53); settings: ADCK4; 1000 nM
kinases (468) [35] = molecular target: kinases (468) (Homo sapiens, UniProt P30291); settings: kinase WEE1 (Entrez WEE1); compound concentration 1000 nM
Sequence of kinases (468) (Homo sapiens, UniProt P30291) (P30291 whole entry): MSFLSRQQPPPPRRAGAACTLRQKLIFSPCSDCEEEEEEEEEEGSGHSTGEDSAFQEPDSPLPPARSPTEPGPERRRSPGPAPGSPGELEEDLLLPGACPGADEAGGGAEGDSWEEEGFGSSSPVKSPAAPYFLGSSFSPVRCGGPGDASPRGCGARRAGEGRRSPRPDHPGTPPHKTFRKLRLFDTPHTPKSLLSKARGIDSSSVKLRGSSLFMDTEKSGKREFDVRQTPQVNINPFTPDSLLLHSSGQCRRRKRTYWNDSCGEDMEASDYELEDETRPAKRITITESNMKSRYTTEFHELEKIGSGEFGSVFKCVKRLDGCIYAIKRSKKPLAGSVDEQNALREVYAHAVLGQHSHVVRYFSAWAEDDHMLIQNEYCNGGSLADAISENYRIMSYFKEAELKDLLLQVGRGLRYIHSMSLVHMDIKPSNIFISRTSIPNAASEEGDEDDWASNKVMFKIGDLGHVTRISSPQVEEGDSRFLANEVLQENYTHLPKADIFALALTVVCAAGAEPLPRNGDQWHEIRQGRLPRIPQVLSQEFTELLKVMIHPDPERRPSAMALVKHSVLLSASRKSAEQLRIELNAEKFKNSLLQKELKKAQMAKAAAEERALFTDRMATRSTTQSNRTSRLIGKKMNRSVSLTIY

Sequence of kinases (468) (Homo sapiens, UniProt P36888) (P36888 27-993): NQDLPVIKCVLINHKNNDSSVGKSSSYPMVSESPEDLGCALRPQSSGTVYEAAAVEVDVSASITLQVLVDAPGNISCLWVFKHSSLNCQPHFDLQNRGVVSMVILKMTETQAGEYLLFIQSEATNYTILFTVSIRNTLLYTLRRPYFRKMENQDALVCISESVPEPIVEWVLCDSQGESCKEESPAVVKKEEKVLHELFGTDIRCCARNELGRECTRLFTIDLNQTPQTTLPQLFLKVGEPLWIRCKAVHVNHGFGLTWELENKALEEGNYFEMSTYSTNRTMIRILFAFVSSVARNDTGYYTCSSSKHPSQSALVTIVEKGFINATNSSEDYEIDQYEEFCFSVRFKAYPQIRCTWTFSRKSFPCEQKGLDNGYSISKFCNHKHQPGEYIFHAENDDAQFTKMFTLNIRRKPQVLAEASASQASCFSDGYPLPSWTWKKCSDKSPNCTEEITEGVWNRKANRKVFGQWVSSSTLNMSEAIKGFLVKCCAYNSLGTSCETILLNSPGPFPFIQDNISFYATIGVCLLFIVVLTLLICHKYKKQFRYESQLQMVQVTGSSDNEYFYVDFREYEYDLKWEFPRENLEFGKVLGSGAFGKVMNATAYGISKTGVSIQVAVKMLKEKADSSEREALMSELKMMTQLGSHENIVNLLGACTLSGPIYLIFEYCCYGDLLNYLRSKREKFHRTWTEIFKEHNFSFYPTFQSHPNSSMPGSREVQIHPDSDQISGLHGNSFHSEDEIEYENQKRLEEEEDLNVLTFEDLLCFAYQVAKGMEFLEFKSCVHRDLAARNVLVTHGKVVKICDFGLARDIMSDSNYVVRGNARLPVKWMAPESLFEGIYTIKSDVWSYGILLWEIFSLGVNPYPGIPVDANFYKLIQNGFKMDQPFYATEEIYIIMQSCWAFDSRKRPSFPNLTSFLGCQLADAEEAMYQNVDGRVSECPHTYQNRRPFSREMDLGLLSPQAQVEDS
Sequence of kinases (468) (Homo sapiens, UniProt P10721) (P10721 26-976): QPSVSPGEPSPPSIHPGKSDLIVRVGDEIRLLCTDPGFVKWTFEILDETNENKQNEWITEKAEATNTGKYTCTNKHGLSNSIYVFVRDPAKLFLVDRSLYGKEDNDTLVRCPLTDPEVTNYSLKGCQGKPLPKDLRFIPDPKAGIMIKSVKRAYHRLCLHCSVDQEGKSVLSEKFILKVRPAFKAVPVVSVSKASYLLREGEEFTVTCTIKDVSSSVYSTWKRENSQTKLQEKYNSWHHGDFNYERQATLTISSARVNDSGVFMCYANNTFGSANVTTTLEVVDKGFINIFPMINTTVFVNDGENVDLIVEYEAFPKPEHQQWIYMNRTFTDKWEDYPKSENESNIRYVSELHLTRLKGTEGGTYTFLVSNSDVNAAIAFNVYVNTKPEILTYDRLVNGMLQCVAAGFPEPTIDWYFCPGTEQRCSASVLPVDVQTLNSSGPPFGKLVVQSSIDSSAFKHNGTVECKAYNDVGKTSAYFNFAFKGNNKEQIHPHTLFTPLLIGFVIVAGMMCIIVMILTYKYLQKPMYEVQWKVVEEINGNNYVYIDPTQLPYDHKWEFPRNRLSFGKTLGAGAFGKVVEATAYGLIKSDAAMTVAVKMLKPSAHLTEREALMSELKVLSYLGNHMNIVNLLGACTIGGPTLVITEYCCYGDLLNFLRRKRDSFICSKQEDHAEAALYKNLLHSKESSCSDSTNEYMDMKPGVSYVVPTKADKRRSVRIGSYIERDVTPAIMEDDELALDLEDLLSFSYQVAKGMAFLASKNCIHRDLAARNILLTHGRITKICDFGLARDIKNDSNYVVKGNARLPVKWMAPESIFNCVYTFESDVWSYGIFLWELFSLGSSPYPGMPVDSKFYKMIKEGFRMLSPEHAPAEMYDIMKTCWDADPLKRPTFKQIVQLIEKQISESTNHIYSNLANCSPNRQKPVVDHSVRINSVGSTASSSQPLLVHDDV
Sequence of kinases (468) (Homo sapiens, UniProt Q13164) (Q13164 whole entry): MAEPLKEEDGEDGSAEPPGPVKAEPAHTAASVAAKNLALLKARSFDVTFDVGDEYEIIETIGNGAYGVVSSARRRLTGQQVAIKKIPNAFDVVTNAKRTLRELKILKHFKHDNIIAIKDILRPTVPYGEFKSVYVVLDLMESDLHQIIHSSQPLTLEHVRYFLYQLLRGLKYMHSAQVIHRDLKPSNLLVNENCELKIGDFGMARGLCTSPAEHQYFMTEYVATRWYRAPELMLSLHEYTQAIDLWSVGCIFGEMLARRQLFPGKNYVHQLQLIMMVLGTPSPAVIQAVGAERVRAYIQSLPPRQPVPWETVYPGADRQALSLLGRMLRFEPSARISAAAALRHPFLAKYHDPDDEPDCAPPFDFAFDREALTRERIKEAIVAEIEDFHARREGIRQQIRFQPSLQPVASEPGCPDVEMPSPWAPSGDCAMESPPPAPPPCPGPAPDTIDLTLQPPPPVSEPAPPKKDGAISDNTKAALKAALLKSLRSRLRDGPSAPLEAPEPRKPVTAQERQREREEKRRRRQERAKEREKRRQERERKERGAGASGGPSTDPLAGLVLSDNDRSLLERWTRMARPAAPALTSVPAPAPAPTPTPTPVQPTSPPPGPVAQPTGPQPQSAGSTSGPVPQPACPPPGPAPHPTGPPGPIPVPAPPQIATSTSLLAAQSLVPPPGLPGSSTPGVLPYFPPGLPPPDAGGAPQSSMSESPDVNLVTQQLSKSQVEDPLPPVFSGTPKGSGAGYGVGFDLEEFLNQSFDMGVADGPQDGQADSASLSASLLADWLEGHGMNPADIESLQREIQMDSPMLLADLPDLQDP
Sequence of kinases (468) (Homo sapiens, UniProt P35916) (P35916 25-1363): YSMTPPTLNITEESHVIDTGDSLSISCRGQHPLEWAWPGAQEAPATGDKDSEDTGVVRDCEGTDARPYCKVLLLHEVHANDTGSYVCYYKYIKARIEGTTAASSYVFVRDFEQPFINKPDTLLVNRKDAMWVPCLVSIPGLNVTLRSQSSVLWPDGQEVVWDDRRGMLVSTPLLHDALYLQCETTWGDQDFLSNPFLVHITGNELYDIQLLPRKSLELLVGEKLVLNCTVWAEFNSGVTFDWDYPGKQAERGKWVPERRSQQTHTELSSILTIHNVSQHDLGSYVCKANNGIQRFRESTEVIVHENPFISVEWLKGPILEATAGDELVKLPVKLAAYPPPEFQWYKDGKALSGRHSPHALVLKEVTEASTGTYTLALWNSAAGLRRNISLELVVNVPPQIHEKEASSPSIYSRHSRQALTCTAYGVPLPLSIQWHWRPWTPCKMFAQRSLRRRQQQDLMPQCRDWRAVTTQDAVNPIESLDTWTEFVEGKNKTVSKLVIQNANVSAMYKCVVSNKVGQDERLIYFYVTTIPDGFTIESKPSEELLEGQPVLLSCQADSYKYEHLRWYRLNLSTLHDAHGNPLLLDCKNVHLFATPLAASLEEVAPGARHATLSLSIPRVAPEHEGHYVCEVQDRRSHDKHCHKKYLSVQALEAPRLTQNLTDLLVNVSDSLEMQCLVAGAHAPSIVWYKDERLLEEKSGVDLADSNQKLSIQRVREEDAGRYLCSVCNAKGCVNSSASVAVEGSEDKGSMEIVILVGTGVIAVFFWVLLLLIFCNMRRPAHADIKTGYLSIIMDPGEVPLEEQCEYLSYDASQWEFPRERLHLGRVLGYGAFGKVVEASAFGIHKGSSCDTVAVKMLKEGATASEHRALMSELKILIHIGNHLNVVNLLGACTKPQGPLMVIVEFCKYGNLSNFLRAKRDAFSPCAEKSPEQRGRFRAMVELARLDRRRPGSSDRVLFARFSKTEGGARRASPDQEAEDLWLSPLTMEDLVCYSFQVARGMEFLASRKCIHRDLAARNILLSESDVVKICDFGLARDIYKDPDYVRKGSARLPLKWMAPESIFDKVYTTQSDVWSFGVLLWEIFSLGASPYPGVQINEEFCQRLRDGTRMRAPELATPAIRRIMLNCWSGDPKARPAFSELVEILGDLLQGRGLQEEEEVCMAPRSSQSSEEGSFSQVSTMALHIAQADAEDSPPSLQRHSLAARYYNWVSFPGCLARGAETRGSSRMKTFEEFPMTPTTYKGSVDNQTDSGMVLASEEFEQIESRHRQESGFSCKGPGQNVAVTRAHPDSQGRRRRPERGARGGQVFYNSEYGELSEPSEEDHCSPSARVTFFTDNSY
Sequence of kinases (468) (Homo sapiens, UniProt Q15759) (Q15759 whole entry): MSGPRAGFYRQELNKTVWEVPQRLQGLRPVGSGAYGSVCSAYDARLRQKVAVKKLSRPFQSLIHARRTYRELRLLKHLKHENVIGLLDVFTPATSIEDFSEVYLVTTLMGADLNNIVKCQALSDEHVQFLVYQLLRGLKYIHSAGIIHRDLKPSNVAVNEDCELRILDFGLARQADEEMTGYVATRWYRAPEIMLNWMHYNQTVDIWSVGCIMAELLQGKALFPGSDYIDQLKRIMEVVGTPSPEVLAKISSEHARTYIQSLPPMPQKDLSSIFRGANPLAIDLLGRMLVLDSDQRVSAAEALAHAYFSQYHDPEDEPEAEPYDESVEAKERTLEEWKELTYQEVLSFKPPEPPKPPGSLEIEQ

## C[C@H]1C[C@@H](O)CN(c2ncc(Cl)c(Nc3ccc4c(c3)c3c(c(=O)n4C)OCC(F)(F)[C@H](C4CC4)N3)n2)C1 [CCT373566_9A]
Kinases (468) [1]
  Percent Control: 97%
Kinases (468) [2]
  Percent Control: 100%
Kinases (468) [3]
  Percent Control: 100%
Kinases (468) [4]
  Percent Control: 100%
Kinases (468) [5]
  Percent Control: 98%
Kinases (468) [6]
  Percent Control: 96%
Kinases (468) [7]
  Percent Control: 95%
Kinases (468) [8]; KIT-autoinhibited
  Percent Control: 90%
Kinases (468) [8]; KIT
  Percent Control: 100%
Kinases (468) [9]; FLT3-autoinhibited
  Percent Control: 98%
Kinases (468) [9]; FLT3
  Percent Control: 99%
Kinases (468) [10]
  Percent Control: 100%
Kinases (468) [11]
  Percent Control: 100%
Kinases (468) [12]
  Percent Control: 98% and 100% and 83%
Kinases (468) [12]; FLT3(ITD), 1000 nM
  Percent Control: 99%
Kinases (468) [12]; FLT3(ITD,D835V), 1000 nM
  Percent Control: 75%
Kinases (468) [13]
  Percent Control: 99%
Kinases (468) [14]
  Percent Control: 92%
Kinases (468) [15]
  Percent Control: 100%
Kinases (468) [16]
  Percent Control: 93%
Kinases (468) [17]
  Percent Control: 100%
Kinases (468) [18]
  Percent Control: 100%
Kinases (468) [19]
  Percent Control: 96%
Kinases (468) [20]
  Percent Control: 100%
Kinases (468) [21]
  Percent Control: 100%
Kinases (468) [22]
  Percent Control: 97%
Kinases (468) [23]
  Percent Control: 100%
Kinases (468) [24]
  Percent Control: 100%
Kinases (468) [25]
  Percent Control: 82%
Kinases (468) [26]
  Percent Control: 90%
Kinases (468) [27]
  Percent Control: 99%
Kinases (468) [28]
  Percent Control: 89%
Kinases (468) [29]
  Percent Control: 100%
Kinases (468) [30]
  Percent Control: 88%
Kinases (468) [31]
  Percent Control: 98%
Kinases (468) [32]
  Percent Control: 95%
Kinases (468) [33]
  Percent Control: 86%
Kinases (468) [34]
  Percent Control: 93%
Kinases (468) [35]
  Percent Control: 89%
